In patent publication US20220324835A1 (Nurix Therapeutics, Inc., priority 2018, published 2022):
Read-outs that look alike come from different tables or passages of the source.

Experiments:
T-cell = assay: IL-2 secretion from T-cells stimulated with anti-CD3 antibody alone (Biological Example 2); format: cell-based, human; details: T-cell, read-out: IL-2 secretion Anti-CD3 stimulation; for fold induction at 1 µM: 1 μM Cbl-b inhibitor; for fold induction at 8 µM: 8 μM Cbl-b inhibitor
Cbl-b (residues 36-427) = Cbl-b (residues 36-427) (Homo sapiens, UniProt Q13191); assay: Cbl-b binding assay (SPR, Biacore T200); details: 20° C., 1:1 binding model
Method in brief: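 Affinities derived from global 1:1 steady-state or kinetic fits of double-referenced, solvent-corrected SPR data, 20 °C, NeutrAvidin-capture chip. Compound series (top 100 or 50 μM, 8–10 points) injected 50 s, 90–180 s dissociation. Asterisked values used 50 mM instead of 100 mM NaCl and 30 nM Src kinase.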

Cbl-b = Cbl-b (Homo sapiens, UniProt Q13191); assay: Cbl-b inhibition assay (Cbl-b activity assay, FRET, Biological Example 1; 100 mM NaCl, 60 nM Src kinase); format: biochemical; details: upper bound stated in text lists; read-out: IC50 values in the Cbl-b inhibition assay of Biological Example 1
Method in brief: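 Binding-based Cbl-b activity assay. Src-phosphorylated, N-terminally biotin-Avi-tagged Cbl-b recruits labelled UbcH5B-Ub, and proximity to streptavidin-terbium yields FRET.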

[1] = fold change over baseline, primary human total T-cells

Cbl-b, sequence (Q13191 36-427): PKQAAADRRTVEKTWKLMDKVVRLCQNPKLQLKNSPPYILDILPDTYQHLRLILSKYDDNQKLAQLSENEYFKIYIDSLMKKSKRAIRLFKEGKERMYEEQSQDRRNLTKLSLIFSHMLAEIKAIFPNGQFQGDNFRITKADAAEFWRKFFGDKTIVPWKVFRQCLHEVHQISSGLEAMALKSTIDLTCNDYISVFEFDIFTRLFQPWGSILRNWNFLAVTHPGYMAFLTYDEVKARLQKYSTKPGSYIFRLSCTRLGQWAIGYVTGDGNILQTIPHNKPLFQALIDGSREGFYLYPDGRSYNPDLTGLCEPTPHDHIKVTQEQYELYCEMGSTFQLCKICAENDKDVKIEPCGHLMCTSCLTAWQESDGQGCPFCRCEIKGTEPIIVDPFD
Cbl-b (residues 36-427), sequence (Q13191 36-427): as above

C[C@H](Cc1nncn1C)c1cc(F)cc(N2Cc3c(cccc3C(F)(F)F)C2=O)c1 [Compound 281a, 2-[3-Fluoro-5-[(1R)-1-methyl-2-(4-methyl-1,2,4-triazol-3-yl)ethyl]phenyl]-4-(trifluoromethyl)isoindolin-1-one]
fold induction at 1 µM (T-cell; [1]): < 0.05
fold induction at 8 µM (T-cell; [1]): 0.051 to 0.1
Kd (Cbl-b (residues 36-427)): 100 to 300 nM
IC50 (Cbl-b): ≤ 500 nM

C[C@H](Sc1nncn1C)c1ccc(F)c(NC(=O)c2cccc(C(F)(F)F)n2)c1 [Compound 95a, (S)-N-(2-fluoro-5-(1-((4-methyl-4H-1,2,4-triazol-3-yl)thio)ethyl)phenyl)-6-(trifluoromethyl)picolinamide]
fold induction at 1 µM (T-cell; [1]): < 0.05
fold induction at 8 µM (T-cell; [1]): 0.051 to 0.1
Kd (Cbl-b (residues 36-427)): 1000 to 3000 nM
IC50 (Cbl-b): ≤ 500 nM

C[C@H](Sc1nnc[nH]1)c1cccc(NC(=O)c2cc3ccccc3cn2)c1 [Compound 98, (S)-N-(3-(1-((4H-1,2,4-triazol-3-yl)thio)ethyl)phenyl)isoquinoline-3-carboxamide]
fold induction at 1 µM (T-cell; [1]): 0.051 to 0.1
fold induction at 8 µM (T-cell; [1]): 0.051 to 0.1
Kd (Cbl-b (residues 36-427)): 3000 to 10000 nM
IC50 (Cbl-b): ≤ 1000 nM

C[C@H](Cc1nncn1C)c1cc(NCCO)nc(N2Cc3c(cccc3C(F)(F)F)C2=O)c1 [Compound 357, (R)-2-(6-(2-hydroxyethylamino)-4-(1-(4-methyl-4H-1,2,4-triazol-3-yl)propan-2-yl)pyridin-2-yl)-4-(trifluoromethyl)isoindolin-1-one]
fold induction at 1 µM (T-cell; [1]): 0.051 to 0.1
fold induction at 8 µM (T-cell; [1]): 0.151 to 0.2
Kd (Cbl-b (residues 36-427)): 100 to 300 nM
IC50 (Cbl-b): ≤ 300 nM

C[C@H](Cc1nncn1C)c1cccc(NC(=O)c2ccnc(C(F)(F)F)n2)c1 [Compound 187, (R)-N-(3-(1-(4-methyl-4H-1,2,4-triazol-3-yl)propan-2-yl)phenyl)-2-(trifluoromethyl)pyrimidine-4-carboxamide]
fold induction at 1 µM (T-cell; [1]): > 0.201
fold induction at 8 µM (T-cell; [1]): > 0.201
Kd (Cbl-b (residues 36-427)): 100 to 300 nM
IC50 (Cbl-b): ≤ 500 nM

C[C@H](Cc1nncn1C)c1cccc(N2Cc3c(ccnc3C3CCC3)C2=O)c1 [Compound 258, (R)-4-cyclobutyl-2-(3-(1-(4-methyl-4H-1,2,4-triazol-3-yl)propan-2-yl)phenyl)-2,3-dihydropyrrolo[3,4-c]pyridin-1-one]
fold induction at 1 µM (T-cell; [1]): 0.051 to 0.1
fold induction at 8 µM (T-cell; [1]): 0.101 to 0.15
Kd (Cbl-b (residues 36-427)): 3000 to 10000 nM
IC50 (Cbl-b): ≤ 500 nM

COc1cc(C(=O)Nc2cccc([C@H](C)Sc3nncn3C)c2)nc(C(F)(F)F)c1 [Compound 71, (S)-4-methoxy-N-(3-(1-((4-methyl-4H-1,2,4-triazol-3-yl)thio)ethyl)phenyl)-6-(trifluoromethyl)picolinamide]
fold induction at 1 µM (T-cell; [1]): 0.051 to 0.1
fold induction at 8 µM (T-cell; [1]): > 0.201
Kd (Cbl-b (residues 36-427)): 100 to 300 nM
IC50 (Cbl-b): ≤ 500 nM

C[C@H](Sc1nncn1C)c1cccc(NC(=O)c2cc(C(F)(F)F)cc(C(F)(F)F)n2)c1 [Compound 64, (S)-N-(3-(1-((4-methyl-4H-1,2,4-triazol-3-yl)thio)ethyl)phenyl)-4,6-bis(trifluoromethyl)picolinamide]
fold induction at 1 µM (T-cell; [1]): < 0.05
fold induction at 8 µM (T-cell; [1]): < 0.05
Kd (Cbl-b (residues 36-427)): 1000 to 3000 nM
IC50 (Cbl-b): ≤ 1000 nM

C[C@H](Cc1nncn1C)c1cccc(NC(=O)c2cc(C(=O)N3C[C@@H](O)[C@H](F)C3)ccn2)c1 [Compound 240, 4-((3R,4R)-3-fluoro-4-hydroxypyrrolidine-1-carbonyl)-N-(3-((K)-1-(4-methyl-4H-1,2,4-triazol-3-yl)propan-2-yl)phenyl)picolinamide]
fold induction at 1 µM (T-cell; [1]): 0.151 to 0.2
fold induction at 8 µM (T-cell; [1]): > 0.201
Kd (Cbl-b (residues 36-427)): 100 to 300 nM
IC50 (Cbl-b): ≤ 500 nM

C[C@H](Cc1nncn1C)c1ccnc(N2Cc3c(cccc3C(F)(F)F)C2=O)c1 [Compound 304b, (R)-2-(4-(1-(4-methyl-4H-1,2,4-triazol-3-yl)propan-2-yl)pyridin-2-yl)-4-(trifluoromethyl)isoindolin-1-one]
fold induction at 1 µM (T-cell; [1]): < 0.05
fold induction at 8 µM (T-cell; [1]): < 0.05
Kd (Cbl-b (residues 36-427)): 1000 to 3000 nM
IC50 (Cbl-b): ≤ 500 nM

Cc1nc2cc([C@H](C)Sc3nncn3C)cc(NC(=O)c3cccc(C(F)(F)F)n3)c2o1 [Compound 130a, (S)-N-(2-methyl-5-(1-((4-methyl-4H-1,2,4-triazol-3-yl)thio)ethyl)benzo[d]oxazol-7-yl)-6-(trifluoromethyl)picolinamide]
fold induction at 1 µM (T-cell; [1]): < 0.05
fold induction at 8 µM (T-cell; [1]): > 0.201
Kd (Cbl-b (residues 36-427)): 301 to 1000 nM
IC50 (Cbl-b): ≤ 1000 nM

Cc1cc(C(=O)Nc2cccc([C@@](C)(F)C(F)(F)c3nncn3C)c2)nc(C2CC2)n1 [Compound 344, (R)-2-Cyclopropyl-6-methyl-N-(3-(1,1,2-trifluoro-1-(4-methyl-4H-1,2,4-triazol-3-yl)propan-2-yl)phenyl)pyrimidine-4-carboxamide]
fold induction at 1 µM (T-cell; [1]): 0.101 to 0.15
fold induction at 8 µM (T-cell; [1]): > 0.201
Kd (Cbl-b (residues 36-427)): < 100 nM
IC50 (Cbl-b): ≤ 300 nM

CCn1cnnc1C[C@@H](C)c1cccc(NC(=O)c2cc(C(=O)N3C[C@@H](O)C[C@H]3C)ccn2)c1 [Compound 251, N-(3-((R)-1-(4-ethyl-4H-1,2,4-triazol-3-yl)propan-2-yl)phenyl)-4-((2R,4S)-4-hydroxy-2-methylpyrrolidine-1-carbonyl)picolinamide]
fold induction at 1 µM (T-cell; [1]): 0.151 to 0.2
fold induction at 8 µM (T-cell; [1]): 0.151 to 0.2
Kd (Cbl-b (residues 36-427)): 1000 to 3000 nM
IC50 (Cbl-b): ≤ 1000 nM

Cc1cc(C(=O)Nc2cc([C@H](C)Sc3nncn3C)ccn2)nc(C(F)(F)F)c1 [Compound 103, (S)-4-methyl-N-(4-(1-((4-methyl-4H-1,2,4-triazol-3-yl)thio)ethyl)pyridin-2-yl)-6-(trifluoromethyl)picolinamide]
fold induction at 1 µM (T-cell; [1]): < 0.05
fold induction at 8 µM (T-cell; [1]): 0.051 to 0.1
Kd (Cbl-b (residues 36-427)): 1000 to 3000 nM
IC50 (Cbl-b): ≤ 1000 nM

CNS(=O)(=O)c1cc(C(=O)Nc2cccc([C@H](C)Cc3nncn3C)c2)nc(C(F)(F)F)c1 [Compound 201, (R)-N-(3-(1-(4-methyl-4H-1,2,4-triazol-3-yl)propan-2-yl)phenyl)-4-(N-methylsulfamoyl)-6-(trifluoromethyl)picolinamide]
fold induction at 1 µM (T-cell; [1]): 0.151 to 0.2
fold induction at 8 µM (T-cell; [1]): > 0.201
Kd (Cbl-b (residues 36-427)): 301 to 1000 nM
IC50 (Cbl-b): ≤ 500 nM

C[C@H](Cc1nncn1C)c1cc(N[C@@H]2CCOC2)nc(N2Cc3c(cccc3C(F)(F)F)C2=O)c1 (stereo in doubt) [Compound 362, 2-(4-((R)-1-(4-methyl-4H-1,2,4-triazol-3-yl)propan-2-yl)-6-((S)-THF-3-ylamino)pyridin-2-yl)-4-(trifluoromethyl)isoindolin-1-one]
fold induction at 1 µM (T-cell; [1]): 0.051 to 0.1
fold induction at 8 µM (T-cell; [1]): 0.101 to 0.15
Kd (Cbl-b (residues 36-427)): 100 to 300 nM
IC50 (Cbl-b): ≤ 300 nM

Cn1cnnc1[C@@H]1C[C@@H]1c1cccc(NC(=O)c2nc3c(C(F)(F)F)cccc3[nH]2)c1 [Compound 332, N-(3-((1S,2R)-2-(4-methyl-4H-1,2,4-triazol-3-yl)cyclopropyl)phenyl)-4-(trifluoromethyl)-1H-benzo[d]imidazole-2-carboxamide]
fold induction at 1 µM (T-cell; [1]): 0.101 to 0.15
fold induction at 8 µM (T-cell; [1]): > 0.201
Kd (Cbl-b (residues 36-427)): 301 to 1000 nM
IC50 (Cbl-b): ≤ 300 nM

Cn1cnnc1C(F)(F)[C@](C)(F)c1cccc(N2Cc3c(cccc3C(F)(F)F)C2=O)c1 [Compound 296a, (R)-2-(3-(1,1,2-trifluoro-1-(4-methyl-4H-1,2,4-triazol-3-yl)propan-2-yl)phenyl)-4-(trifluoromethyl)isoindolin-1-one]
fold induction at 1 µM (T-cell; [1]): 0.151 to 0.2
fold induction at 8 µM (T-cell; [1]): > 0.201
IC50 (Cbl-b): ≤ 500 nM

C[C@H](Cc1nncn1C)c1cccc(NC(=O)c2cncc(C(F)(F)F)n2)c1 [Compound 189, (R)-N-(3-(1-(4-methyl-4H-1,2,4-triazol-3-yl)propan-2-yl)phenyl)-6-(trifluoromethyl)pyrazine-2-carboxamide]
fold induction at 1 µM (T-cell; [1]): 0.051 to 0.1
fold induction at 8 µM (T-cell; [1]): 0.051 to 0.1
Kd (Cbl-b (residues 36-427)): 301 to 1000 nM
IC50 (Cbl-b): ≤ 500 nM

C[C@H](Sc1nncn1C)c1cccc(NC(=O)c2cccc(S(C)(=O)=O)n2)c1 [Compound 80, (S)-N-(3-(1-((4-methyl-4H-1,2,4-triazol-3-yl)thio)ethyl)phenyl)-6-(methylsulfonyl)picolinamide]
fold induction at 1 µM (T-cell; [1]): < 0.05
fold induction at 8 µM (T-cell; [1]): < 0.05
Kd (Cbl-b (residues 36-427)): 3000 to 10000 nM
IC50 (Cbl-b): ≤ 10000 nM

C[C@H](Cc1nncn1C)c1cc(-c2cn[nH]c2)nc(N2Cc3c(cccc3C(F)(F)F)C2=O)c1 [Example 684, (R)-2-(4-(1-(4-methyl-4H-1,2,4-triazol-3-yl)propan-2-yl)-6-(1H-pyrazol-4-yl)pyridin-2-yl)-4-(trifluoromethyl)isoindolin-1-one]
fold induction at 1 µM (T-cell; Homo sapiens, fold change over baseline (anti-CD3/anti-CD28 stimulated T-cells without inhibitor)): 0.051 to 0.1
Kd (Cbl-b (residues 36-427)): 1000 to 3000 nM
IC50 (Cbl-b): ≤ 1000 nM

CNCc1ccc(C(=O)Nc2cccc([C@H](C)Cc3nncn3C)c2)nc1C1CC1 [Compound 376, (R)-6-cyclopropyl-N-(3-(1-(4-methyl-4H-1,2,4-triazol-3-yl)propan-2-yl)phenyl)-5-((methylamino)methyl)picolinamide]
IC50 (Cbl-b): ≤ 300 nM

C[C@H](Cc1nncn1C)c1cccc(NC(=O)c2cccc(CCO)n2)c1 [Compound 202, 6-(2-hydroxyethyl)-N-[3-[(2R)-1-(4-methyl-4H-1,2,4-triazol-3-yl)propan-2-yl]phenyl]pyridine-2-carboxamide]
fold induction at 1 µM (T-cell; [1]): 0.051 to 0.1
fold induction at 8 µM (T-cell; [1]): 0.151 to 0.2
IC50 (Cbl-b): ≤ 1000 nM
